Measured values: patent US20250304620A1, “ANTIMICROBIAL PEPTIDE AND APPLICATION THEREOF” (priority 2023, published 2025)
Values after ≈ are worked out from the molar mass of the structure shown. Marks after values point to notes of the source that are not given here. Non-standard residues stand in square brackets, D forms with d. Residues, ends and D or L forms follow the SMILES beside them. d2Nal = N[C@H](Cc1ccc2ccccc2c1)C(=O)O

What was measured:
[1] = system: carbapenem-resistant Klebsiella pneumoniae (CRKP); format: cell-based; settings: carbapenem-resistant (CRKP)
In short: (§1)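 Broth serial twofold dilution per CLSI standards, run 5 times in parallel, gave MIC values for the peptides against clinically common resistant strains.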

[2] = system: carbapenem-resistant Pseudomonas aeruginosa (CRPA); format: cell-based; settings: carbapenem-resistant (CRPA)
In short: as §1

[3] = system: Methicillin-resistant Staphylococcus aureus (MRSA); format: cell-based; settings: Methicillin-resistant
In short: as §1

[4] = system: carbapenem-resistant Escherichia coli (CREC); format: cell-based; settings: carbapenem-resistant (CREC)
In short: as §1

[5] = system: vancomycin-resistant Enterococcus (VRE); format: cell-based
In short: as §1

[6] = Serum stability assay (residual level by RP-HPLC); settings: human
[7] = system: Pseudomonas aeruginosa ATCC 27853; assay: Injectable formulations on mice infected with peritonitis; format: in vivo, ICR mice; settings: twice a day for 3 days; for Number of mice that died on each day after infection: day 1 / Number of mice that died on each day after infection: day 2 / Number of mice that died on each day after infection: day 3 / Number of mice that died on each day after infection: day 4 / Number of mice that died on each day after infection: day 5 / Average survival times (Days): n = 10; for Average survival times (Days): observed for 14 d; for survival time of mice infected with Pseudomonas aeruginosa: tail vein, observed 14 d
In short: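 Survival readout: deaths and survival time tracked for 14 d. Treatment was tail-vein injection by body weight, twice a day for 3 consecutive days, starting right after intraperitoneal challenge with 0.2 mL of 1×10^9 CFU/mL P. aeruginosa ATCC 27853 in male and female ICR mice.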

[8] = system: Shigella flexneri ATCC 12022; assay: MIC against clinically common bacterial strain; format: cell-based
In short: (§2)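 Five parallel repeats; twofold dilution series of each peptide per US CLSI susceptibility protocol; endpoint = MIC.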

[9] = system: Bacillus subtilis ATCC 6633; format: cell-based
In short: as §2

Enterococcus ATCC 29212 = format: cell-based
In short: as §2

[10] = system: Corynebacterium ATCC 7715; format: cell-based
In short: as §2

Candida krusei ATCC 6258 = format: cell-based
In short: as §2

[11] = system: Candida tropicalis ATCC 750; format: cell-based
In short: as §2

[12] = system: Candida albicans ATCC MYA-2876; format: cell-based
In short: as §2

[13] = system: Serratia marcescens ATCC 29021; format: cell-based
In short: as §2

[14] = system: Trichophyton ATCC MYA-4438; format: cell-based
In short: as §2

[15] = system: Klebsiella pneumoniae ATCC 700603; format: cell-based
In short: as §2

[16] = system: Pseudomonas aeruginosa ATCC 27853; format: cell-based
In short: as §2

[17] = system: Salmonella typhimurium ATCC 14028; format: cell-based
In short: as §2

[18] = system: Candida glabrata ATCC 15126; format: cell-based
In short: as §2

Candida utilis ATCC 9950 = format: cell-based
In short: as §2

[19] = system: Escherichia coli ATCC 25922; format: cell-based
In short: as §2

[20] = system: Staphylococcus aureus ATCC 25923; format: cell-based
In short: as §2

[21] = system: Staphylococcus aureus (NRS 384); settings: NRS 384, 3 h
Method: Trypsin (250 U/mg, pH=8.0) and AMPs (LV-1 to LV-30) were mixed in a ratio of 1:10 (w/w) and added to a reaction buffer (0.2 M sodium phosphate, 1 mM CaCl2), pH 7.5), and then incubated at 37° C. for 3 h.

[22] = system: Staphylococcus aureus (NRS 384); assay: microbe, parasite or virus in culture; format: cell-based; settings: NRS 384
In short: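 MICs were read against S. aureus strain NRS 384 using twofold serial dilution by CLSI microdilution rules. Levofloxacin and Cbf-K16 were the reference controls, and the test was repeated 5 times in parallel.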

For `CC(=O)N[C@H](CCCCN)C(=O)N[C@H](CCCCN)C(=O)N[C@H](CC(C)C)C(=O)N[C@H](CC(C)C)C(=O)N[C@H](Cc1ccc2ccccc2c1)C(=O)N[C@H](CCCCN)C(=O)N[C@H](CC(C)C)C(=O)N[C@H](CCCCN)C(=O)N[C@H](Cc1ccc2ccccc2c1)C(=O)N[C@H](CCCCN)C(=O)N[C@H](CCCCN)C(N)=O` [LV-17] (Ac-[dK][dK][dL][dL][d2Nal][dK][dL][dK][d2Nal][dK][dK]-NH2), the “MIC CRKP” value [1] was 4 µg/mL (≈ 2.56 µM), the “MIC CRPA” value [2] was 4 µg/mL (≈ 2.56 µM) and the “MIC MRSA” value [3] was 8 µg/mL (≈ 5.12 µM). For the same compound, the “MIC CREC” value [4] was 4 µg/mL (≈ 2.56 µM), the “MIC VRE” value [5] was 8 µg/mL (≈ 5.12 µM) and the remaining at 12 h, 0.91 mg/mL [6] was 97.2%. For the same compound, the “Number of mice that died on each day after infection: day 1” value (“Number of mice that died … day 1” for short) ([7]; 0.2 mg/kg via tail vein) was 1 Mouse, the “Number of mice that died on each day after infection: day 2” value (shortened to “Number of mice that died … day 2”) ([7]; 0.2 mg/kg via tail vein) was 2 Mouse and the “Number of mice that died on each day after infection: day 3” value (“Number of mice that died … day 3” below) ([7]; 0.2 mg/kg via tail vein) was 1 Mouse. The “Number of mice that died on each day after infection: day 4” value (from here on “Number of mice that died … day 4”) ([7]; 0.2 mg/kg via tail vein) was 1 Mouse, the “Number of mice that died on each day after infection: day 5” value (shortened to “Number of mice that died … day 5”) ([7]; 0.2 mg/kg via tail vein) was 1 Mouse and the “Average survival times (Days)” value ([7]; 0.2 mg/kg via tail vein) was 7.3** Days. The “Number of mice that died … day 1” value ([7]; 1 mg/kg via tail vein) was 0 Mouse, the “Number of mice that died … day 2” value ([7]; 1 mg/kg via tail vein) was 2 Mouse and the “Number of mice that died … day 3” value ([7]; 1 mg/kg via tail vein) was 0 Mouse. For the same compound, the “Number of mice that died … day 4” value ([7]; 1 mg/kg via tail vein) was 1 Mouse, the “Number of mice that died … day 5” value ([7]; 1 mg/kg via tail vein) was 0 Mouse and the “Average survival times (Days)” value ([7]; 1 mg/kg via tail vein) was 10.6**** Days. The “Number of mice that died … day 1” value ([7]; 5 mg/kg via tail vein) was 0 Mouse, the “Number of mice that died … day 2” value ([7]; 5 mg/kg via tail vein) was 2 Mouse and the “Number of mice that died … day 3” value ([7]; 5 mg/kg via tail vein) was 1 Mouse. The “Number of mice that died … day 4” value ([7]; 5 mg/kg via tail vein) was 1 Mouse, the “Number of mice that died … day 5” value ([7]; 5 mg/kg via tail vein) was 0 Mouse and the “Average survival times (Days)” value ([7]; 5 mg/kg via tail vein) was 9.5*** Days. The “survival time of mice infected with Pseudomonas aeruginosa” value [7] was “superior to those of the Levofloxacin group”, the “MIC Shigella flexneri ATCC 12022” value [8] was 4 µg/mL (≈ 2.56 µM) and the “MIC Bacillus subtilis ATCC 6633” value [9] was 4 µg/mL (≈ 2.56 µM). For the same compound, the “MIC Enterococcus ATCC 29212” value (Enterococcus ATCC 29212) was 2 µg/mL (≈ 1.28 µM), the “MIC Corynebacterium ATCC 7715” value [10] was 2 µg/mL (≈ 1.28 µM) and the “MIC Candida krusei ATCC 6258” value (Candida krusei ATCC 6258) was 8 µg/mL (≈ 5.12 µM). For the same compound, the “MIC Candida tropicalis ATCC 750” value [11] was 8 µg/mL (≈ 5.12 µM), the “MIC Candida albicans ATCC MYA-2876” value [12] was 8 µg/mL (≈ 5.12 µM) and the “MIC Serratia marcescens ATCC 29021” value [13] was 2 µg/mL (≈ 1.28 µM). For the same compound, the “MIC Trichophyton ATCC MYA-4438” value [14] was 8 µg/mL (≈ 5.12 µM), the “MIC Klebsiella pneumoniae ATCC 700603” value [15] was 4 µg/mL (≈ 2.56 µM) and the “MIC Pseudomonas aeruginosa ATCC 27853” value [16] was 1 µg/mL (≈ 0.64 µM). For the same compound, the “MIC Salmonella typhimurium ATCC 14028” value [17] was 4 µg/mL (≈ 2.56 µM), the “MIC Candida glabrata ATCC 15126” value [18] was 8 µg/mL (≈ 5.12 µM) and the “MIC Candida utilis ATCC 9950” value (Candida utilis ATCC 9950) was 16 µg/mL (≈ 10.2 µM). For the same compound, the “MIC Escherichia coli ATCC 25922” value [19] was 1 µg/mL (≈ 0.64 µM), the “MIC Staphylococcus aureus ATCC 25923” value [20] was 1 µg/mL (≈ 0.64 µM) and the “Trypsin MIC” value [21] was 1 µg/mL. For the same compound, the “MIC against Staphylococcus aureus (NRS 384)” value [22] was 1 µg/mL (≈ 0.64 µM).

In the case of `CC(=O)N[C@H](CCCNC(=N)N)C(=O)N[C@H](CCCCN)C(=O)N[C@H](CC(C)C)C(=O)N[C@H](CC(C)C)C(=O)N[C@H](Cc1ccc2ccccc2c1)C(=O)N[C@H](CCCCN)C(=O)N[C@H](CC(C)C)C(=O)N[C@H](CCCCN)C(=O)N[C@H](Cc1ccc2ccccc2c1)C(=O)N[C@H](CCCCN)C(=O)N[C@H](CCCNC(=N)N)C(N)=O` [LV-18] (Ac-[dR][dK][dL][dL][d2Nal][dK][dL][dK][d2Nal][dK][dR]-NH2), the “MIC CRKP” value [1] is reported as 2 µg/mL (≈ 1.24 µM), the “MIC CRPA” value [2] is reported as 4 µg/mL (≈ 2.47 µM) and the “MIC MRSA” value [3] is reported as 4 µg/mL (≈ 2.47 µM). For the same compound, the “MIC CREC” value [4] was 2 µg/mL (≈ 1.24 µM), the “MIC VRE” value [5] was 8 µg/mL (≈ 4.94 µM) and the remaining at 12 h, 0.91 mg/mL [6] was 97.6%. The “Number of mice that died … day 1” value ([7]; 0.2 mg/kg via tail vein) was 2 Mouse, the “Number of mice that died … day 2” value ([7]; 0.2 mg/kg via tail vein) was 1 Mouse and the “Number of mice that died … day 3” value ([7]; 0.2 mg/kg via tail vein) was 1 Mouse. The “Number of mice that died … day 4” value ([7]; 0.2 mg/kg via tail vein) was 1 Mouse, the “Number of mice that died … day 5” value ([7]; 0.2 mg/kg via tail vein) was 1 Mouse and the “Average survival times (Days)” value ([7]; 0.2 mg/kg via tail vein) was 7.2** Days. For the same compound, the “Number of mice that died … day 1” value ([7]; 1 mg/kg via tail vein) was 0 Mouse, the “Number of mice that died … day 2” value ([7]; 1 mg/kg via tail vein) was 1 Mouse and the “Number of mice that died … day 3” value ([7]; 1 mg/kg via tail vein) was 0 Mouse. For the same compound, the “Number of mice that died … day 4” value ([7]; 1 mg/kg via tail vein) was 1 Mouse, the “Number of mice that died … day 5” value ([7]; 1 mg/kg via tail vein) was 1 Mouse and the “Average survival times (Days)” value ([7]; 1 mg/kg via tail vein) was 10.9**** Days. For the same compound, the “Number of mice that died … day 1” value ([7]; 5 mg/kg via tail vein) was 0 Mouse, the “Number of mice that died … day 2” value ([7]; 5 mg/kg via tail vein) was 2 Mouse and the “Number of mice that died … day 3” value ([7]; 5 mg/kg via tail vein) was 1 Mouse. The “Number of mice that died … day 4” value ([7]; 5 mg/kg via tail vein) was 0 Mouse, the “Number of mice that died … day 5” value ([7]; 5 mg/kg via tail vein) was 0 Mouse and the “Average survival times (Days)” value ([7]; 5 mg/kg via tail vein) was 10.5**** Days. For the same compound, the “survival time of mice infected with Pseudomonas aeruginosa” value [7] was “superior to those of the Levofloxacin group”, the “MIC Shigella flexneri ATCC 12022” value [8] was 8 µg/mL (≈ 4.94 µM) and the “MIC Bacillus subtilis ATCC 6633” value [9] was 4 µg/mL (≈ 2.47 µM). The “MIC Enterococcus ATCC 29212” value (Enterococcus ATCC 29212) was 4 µg/mL (≈ 2.47 µM), the “MIC Corynebacterium ATCC 7715” value [10] was 2 µg/mL (≈ 1.24 µM) and the “MIC Candida krusei ATCC 6258” value (Candida krusei ATCC 6258) was 4 µg/mL (≈ 2.47 µM). For the same compound, the “MIC Candida tropicalis ATCC 750” value [11] was 2 µg/mL (≈ 1.24 µM), the “MIC Candida albicans ATCC MYA-2876” value [12] was 4 µg/mL (≈ 2.47 µM) and the “MIC Serratia marcescens ATCC 29021” value [13] was 4 µg/mL (≈ 2.47 µM). The “MIC Trichophyton ATCC MYA-4438” value [14] was 16 µg/mL (≈ 9.89 µM), the “MIC Klebsiella pneumoniae ATCC 700603” value [15] was 2 µg/mL (≈ 1.24 µM) and the “MIC Pseudomonas aeruginosa ATCC 27853” value [16] was 1 µg/mL (≈ 0.618 µM). For the same compound, the “MIC Salmonella typhimurium ATCC 14028” value [17] was 4 µg/mL (≈ 2.47 µM), the “MIC Candida glabrata ATCC 15126” value [18] was 4 µg/mL (≈ 2.47 µM) and the “MIC Candida utilis ATCC 9950” value (Candida utilis ATCC 9950) was 8 µg/mL (≈ 4.94 µM). For the same compound, the “MIC Escherichia coli ATCC 25922” value [19] was 1 µg/mL (≈ 0.618 µM), the “MIC Staphylococcus aureus ATCC 25923” value [20] was 2 µg/mL (≈ 1.24 µM) and the “Trypsin MIC” value [21] was 1 µg/mL. The “MIC against Staphylococcus aureus (NRS 384)” value [22] was 1 µg/mL (≈ 0.618 µM).
